{"source": "patent US20030082227A1", "about": "“Transdermal device comprising a reservoir and a matrix containing the same active principle” (priority 1999, published 2003)", "experiment": "Solubility of testosterone in tetrahydrofuran", "format": "physicochemical"}
{"smiles": "C[C@]12CC[C@H]3[C@@H](CCC4=CC(=O)CC[C@@]43C)[C@@H]1CC[C@@H]2O", "note": "[testosterone, 17β-hydroxyandrost-4-en-3-one]", "values": [{"measurement": "solubility of testosterone in THF", "result": "~27", "unit": "% m/m"}]}
